Data: US10899754B2, “Modulators of indoleamine 2,3-dioxygenase” (GLAXOSMITHKLINE INTELLECTUAL PROPERTY DEVELOPMENT LIMITED, priority 2016, dated 2021)
Like-named read-outs stand apart in the source and are kept apart here.

What was measured:
[1] = target: T1, indoleamine 2, 3-dioxygenase (IDO1) (Homo sapiens, UniProt P14902); assay: IDO1 PBMC RapidFire MS assay (kynurenine detection by mass spectrometry); type: cell-based; set-up: to induce the expression of indoleamine 2, 3-dioxygenase (IDO1); host or cells: human PBMC stimulated with IFN-gamma and LPS; settings: human PBMC stimulated with IFN-γ and LPS, 2 days, pIC50, read-out: PBMC PXC50 (converted)
Procedure, shortened: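 PBMCs (50,000 cells/well) stimulated with IFN-γ 100 ng/ml plus LPS 50 ng/ml, treated with 11-point 3-fold compound series for 2 days at 37° C. Supernatant kynurenine measured by RapidFire MS, normalised to internal standard; parallel cytotoxicity by CellTiter-Glo luminescence; curves fitted for XC50.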

ePL tagged IDO1 = target: T2, ePL tagged IDO1 (Homo sapiens, UniProt P14902); assay: CETSA (Cellular Thermal Shifting assay) in Hela cells; type: binding; settings: BacMam ePL tagged IDO1, 3 hours at 37° C., heated at 53° C. for 3 min
T2 construct: expressed in transfected cells; host or cells: HeLa cells transduced with BacMam virus
Method: Cellular Thermal Shifting assays were used to directly monitor the ligand binding to target proteins in cells. Hela cells were transduced with BacMam virus expressing ePL tagged IDO1 overnight. The cells were then plated over the compounds for 3 hours at 37° C. in cell culture medium containing 1% FBS. The plates were then sealed and heated at 53° C. for 3 min. InCell Hunter reagents were added and luminescence was read in 90 min.

[2] = test system: human peripheral blood mononuclear cells (PBMC); assay: PBMC cytotoxicity assay (CellTiter-Glo); type: cell-based; settings: 2 days, pCC50
Procedure, shortened: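 Human PBMC (50,000 cells/well) stimulated with IFN-γ 100 ng/ml and LPS 50 ng/ml were exposed to 11-point 3-fold compound dilutions for 2 days at 37 °C, 5% CO2. Viability read by CellTiter-Glo ATP luminescence and normalized to no-cell and stimulated-DMSO controls. XC50 derived by four-parameter fit.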

[3] = target: T1, indoleamine 2, 3-dioxygenase (IDO1); assay: IDO1 HeLa RapidFire MS assay (kynurenine detection by mass spectrometry); type: cell-based; set-up: to induce the expression of indoleamine 2, 3-dioxygenase (IDO1); settings: HeLa cells, pIC50, read-out: IDO1_HELA_PXC50 (converted)
Procedure, shortened: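 Compound potency reported as pIC50 from kynurenine/internal-standard ratio (RapidFire MS) in supernatant of IFN-γ-induced (10 nM) HeLa cells, 5,000 per well, after 2 days' treatment with 11-point dilutions. Cytotoxicity in the same format by luminescent ATP detection, reported as pCC50.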

[4] = test system: human epithelial HeLa cells; assay: HeLa cytotoxicity assay (CellTiter-Glo); type: cell-based; settings: pCC50
Procedure, shortened: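 HeLa cells (5,000/well) stimulated with 10 nM IFN-γ, exposed to 11-point 3-fold compound dilutions for 2 days at 37 °C; viability by CellTiter-Glo ATP luminescence. Normalized to cell-free (100% cytotoxicity) and stimulated-cell DMSO (0%) controls; four-parameter fit gives pCC50.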

T2 sequence (P14902 whole entry): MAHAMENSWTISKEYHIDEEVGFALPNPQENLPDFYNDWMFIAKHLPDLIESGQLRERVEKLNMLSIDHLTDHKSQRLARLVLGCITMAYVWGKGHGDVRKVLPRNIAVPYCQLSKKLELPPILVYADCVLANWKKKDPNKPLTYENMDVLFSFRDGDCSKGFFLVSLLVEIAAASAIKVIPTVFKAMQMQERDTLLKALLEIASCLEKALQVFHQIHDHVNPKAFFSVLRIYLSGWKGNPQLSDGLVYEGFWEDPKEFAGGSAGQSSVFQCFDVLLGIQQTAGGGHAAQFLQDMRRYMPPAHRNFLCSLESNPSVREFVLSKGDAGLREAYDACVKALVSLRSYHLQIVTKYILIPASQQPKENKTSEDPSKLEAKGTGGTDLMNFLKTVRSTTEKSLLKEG
T1 sequence (P14902 whole entry): as above

Compound	IC50 [1] [nM]	EC50 (ePL tagged IDO1; read-out: pXC50_1 (converted)) [nM]	EC50 (ePL tagged IDO1; read-out: pXC50_2 (converted)) [nM]	PBMC TOX PXC50 [2]	IC50 [3] [nM]	HELA_IDO1_TOX_PXC50 [4]
CC(C)CN(c1ccc([C@H](C)CC(=O)O)cc1Nc1ccc(Cl)nc1)C1CCOCC1 [Example 6, (R)-3-(3-((6-chloropyridin-3-yl)amino)-4-(isobutyl(tetrahydro-2H-pyran-4-yl)amino)phenyl)butanoic Acid]	0.631	13.8	20.9	<5		
CC(C)CN(c1ccc([C@H](C)CC(=O)O)cc1Nc1ccc(C#N)cn1)C1CCOCC1 [Example 16, (R)-3-(3-((5-cyanopyridin-2-yl)amino)-4-(isobutyl(tetrahydro-2H-pyran-4-yl)amino)phenyl)butanoic Acid]	1.58	257	316	<5		
CO[C@H]1CC[C@@H](N(CC(C)C)c2ccc([C@H](C)CC(=O)O)cc2Nc2nc(C(F)(F)F)n[nH]2)CC1 [Example 51]	1.58	1.7		<5		
CC(C)CN(c1ccc([C@H](C)CC(=O)O)cc1Nc1ccc(Cl)nn1)C1CCOCC1 [Example 11, (R)-3-(3-((6-chloropyridazin-3-yl)amino)-4-(isobutyl(tetrahydro-2H-pyran-4-yl)amino)phenyl)butanoic Acid]	1	112	191	<5		
CC(C)CN(c1ccc([C@H](C)CC(=O)O)cc1Nc1cccc(Cl)n1)C1CCCCC1 [example 169, (3R)-3-{3-[(6-chloropyridin-2-yl)amino]-4-[cyclohexyl(2-methylpropyl)amino]phenyl}butanoic acid]	7.94			<5	25.1	<5
CC(C)CN(c1ccc([C@H](C)CC(=O)O)cc1Nc1nc(C(F)(F)F)ns1)[C@H]1CC[C@@H](O)CC1 [Example 59, (R)-3-(4-(((1s,4S)-4-hydroxycyclohexyl) (isobutyl)amino)-3-((3-(trifluoromethyl)-1,2,4-thiadiazol-5-yl)amino)phenyl)butanoic Acid]	6.31			<5	10	<5
CC(C)CN(c1ccc([C@H](C)CC(=O)O)cc1Nc1ccc(C#N)cn1)C1CCCCC1 [Example 73, (R)-3-(3-((5-cyanopyridin-2-yl)amino)-4-(cyclohexyl(isobutyl)amino)phenyl)butanoic Acid]	0.794			<5	3.98	<5
CC(C)CN(CC(C)C)c1ccc([C@H](C)CC(=O)O)cc1Nc1nnc(C(F)(F)F)s1 [Example 87, (R)-3-(4-(diisobutylamino)-3-((5-(trifluoromethyl)-1,3,4-thiadiazol-2-yl)amino)phenyl)butanoic Acid]	3.98			<5	7.94	<5
CC(C)CN(c1ccc(C(C)(C)CC(=O)O)cc1Nc1nc(Cl)ns1)C1CCOCC1 [Example 5, 3-(3-((3-chloro-1,2,4-thiadiazol-5-yl)amino)-4-(isobutyl(tetrahydro-2H-pyran-4-yl)amino)phenyl)-3-methylbutanoic Acid]	5.01			<5	25.1	<5
CC(C)CN(CC(C)C)c1ccc(C2CC2C(=O)O)cc1Nc1nc(Cl)ns1 (stereo not drawn) [example 177, (1R*,2R**)-2-{4-[bis(2-methylpropyl)amino]-3-[(3-chloro-1,2,4-thiadiazol-5-yl)amino]phenyl}cyclo-propane-1-carboxylic acid]	31.6			<5	158	<5
CC(C)CC(=O)N1CCC(N(CC(C)C)c2ccc([C@H](C)CC(=O)O)cc2Nc2nc(C(F)(F)F)ns2)CC1 [Example 67, (R)-3-(4-(isobutyl(1-(3-methylbutanoyl)piperidin-4-yl)amino)-3-((3-(trifluoromethyl)-1,2,4-thiadiazol-5-yl)amino)phenyl)butanoic Acid]	2	72.4	50.1	<5		
CC(C)CN(c1ccc([C@H](C)Cc2nnn[nH]2)cc1Nc1nc(C(F)(F)F)ns1)C1CCCCC1 [Example 101, (R)-4-(1-(1H-tetrazol-5-yl)propan-2-yl)-N^1-cyclohexyl-N^1-isobutyl-N^2-(3-(trifluoromethyl)-1,2,4-thiadiazol-5-yl)benzene-1,2-diamine]	1.58			<5	2.51	<5
CC(C)CN(c1ccc(C(C)CC(=O)O)cc1NC1=N[C@H](C)CO1)C1CCCCC1 (stereo partly drawn) [example 151, 3-{4-[cyclohexyl(2-methylpropyl)amino]-3-{[(4R)-4-methyl-4,5-dihydro-1,3-oxazol-2-yl]amino}phenyl}butanoic acid]	2510			<5	2000	<5
CC(C)CN(c1ccc([C@H](C)CC(=O)O)cc1Nc1nc(C(F)(F)F)ns1)[C@H]1CC[C@H](O)CC1 [Example 44, (R)-3-(4-(((1r,4R)-4-hydroxycyclohexyl) (isobutyl)amino)-3-((3-(trifluoromethyl)-1,2,4-thiadiazol-5-yl)amino)phenyl)butanoic Acid]	0.631	1.7		<5		
CC(C)CN(c1ccc(-c2ccccc2C(=O)O)cc1Nc1nc(C(N)=O)ns1)C1CCCCC1 [Example 91, 3′-((3-carbamoyl-1,2,4-thiadiazol-5-yl)amino)-4′-(cyclohexyl(isobutyl)amino)-[1,1′-biphenyl]-2-carboxylic acid]	10			<5	20	<5
COCc1ccc(Nc2cc([C@H](C)CC(=O)O)ccc2N(CC(C)C)C2CCOCC2)cn1 [Example 31, (R)-3-(4-(isobutyl(tetrahydro-2H-pyran-4-yl)amino)-3-((6-(methoxymethyl)pyridin-3-yl)amino)phenyl)butanoic Acid]	10			<5	20	5
CC(C)CN(c1ccc(-c2ccccc2C(=O)O)cc1Nc1nc2ccccc2o1)C1CCOCC1 [example 291, 3′-[(1,3-benzoxazol-2-yl)amino]-4′-[(2-methylpropyl)(oxan-4-yl)amino]-[1,1′-biphenyl]-2-carboxylic acid]	126			<5	100	<5
CC(C)CN(c1ccc([C@H](C)CC(=O)O)cc1Nc1ccc(Cl)nn1)[C@H]1CC[C@H](O)CC1 [Example 57, (R)-3-(3-((6-chloropyridazin-3-yl)amino)-4-(((1r,4R)-4-hydroxycyclohexyl) (isobutyl)amino)phenyl)butanoic Acid]	5.01			<5	7.94	<5
CC(C)CN(c1ccc(C(C)CC(=O)O)cc1NC1=NC(=O)[C@@H](C)N1)C1CCCCC1 (stereo partly drawn) [example 163, 3-{4-[cyclohexyl(2-methylpropyl)amino]-3-{[(5R)-5-methyl-4-oxo-4,5-dihydro-1H-imidazol-2-yl]amino}phenyl}butanoic acid]	3160			<5	2000	<5
